# Reference: US20210308089A1, “METHODS OF TREATING AND/OR PREVENTING VIRAL INFECTIONS AND/OR DISEASES CAUSED BY VIRUSES IN A SUBJECT IN NEED THEREOF” (priority 2020, published 2021)
# Assays:
# Assay type in all cases: in vivo, human
# [1] = tested on: statin-treated patients with established atherosclerosis or diabetes and elevated triglycerides; test: REDUCE-IT: total (first and recurrent) ischemic events analysis
# Excerpt: The following study was a multi-center, placebo-controlled clinical trial the details of which are described above in Example 1, the REDUCE-IT design. […] Randomization was stratified by cardiovascular risk cohort (i.e., secondary or primary prevention), use of ezetimibe, and by geographic region.
# The primary outcome for the study was total recurrent events consisting of the composite of cardiovascular death, nonfatal myocardial infarction, nonfatal stroke, coronary revascularization, or hospitalization for unstable angina. Recurrent event analyses were also performed for the key secondary endpoint, a composite of cardiovascular death, nonfatal myocardial infarction, or nonfatal stroke. For each of these composite endpoints, the effects of icosapent ethyl in the secondary and primary prevention strata were examined separately.
# Demographic and baseline disease characteristics are presented using frequencies and percentages for categorical variables and medians with interquartile ranges for continuous variables. Between treatment group comparisons were derived using the chi-square test for categorical variables and Wilcoxon rank test for continuous variables. All clinical endpoint events used in the efficacy analyses were adjudicated by an independent Clinical Endpoint Committee (CEC) who were blinded to the treatment assignment. Since the primary efficacy endpoint was the time from randomization to the first occurrence of any component of the composite endpoint, and recurrence of such events within each patient is possible, a pre-specified analysis using a Cox proportional-hazard with the counting-process formulation of Andersen and Gill was performed to model the first and all recurrent cardiovascular events. HRs and corresponding 95% CIs are reported from this model. In addition, as a marginal model and an extension of survival models based on the Cox proportional hazard model, the modified Wei-Lin-Weissfeld (WLW) method for analysis of recurrent events in the presence of deaths was carried out as a supportive analysis. In addition, as pre-specified, a recurrent event analysis using the Andersen-Gill and Wei-Lin-Weissfeld methods was carried out for the individual primary event components other than CV death. Though not pre-specified, additional recurrent event analyses were performed for the key secondary endpoint, which is a composite of CV death, nonfatal MI, or nonfatal stroke, and for the primary endpoint and the key secondary endpoint in the primary and secondary prevention strata to explore further the consistency of clinical benefit of icosapent ethyl. In subgroup analyses of the two cardiovascular risk strata (i.e., primary and secondary prevention), site-level discrepancies in cardiovascular risk group assignment occurring at entry and detected during the study (1.8%) were adjusted to conform with documented medical history data prior to randomization. All efficacy analyses were performed according to the intention-to-treat principle. All tests were based on a 2-sided nominal significance level of 5% with no adjustments for multiple comparisons.
# [2] = tested on: symptomatic COVID-19 outpatients with positive SARS-CoV-2 test; test: VASCEPA-COVID-19: adverse events
# Excerpt: Safety monitoring was undertaken at each study visit in accordance with Health Canada regulations and local reporting guidelines. All serious, unexpected adverse drug reactions (ADRs) were reported to Health Canada in accordance with Division 5 of Part C of the Food and Drug Regulations.
# An adverse event (AE) is defined as any untoward medical occurrence, including an exacerbation of a pre-existing condition, in a patient in a clinical investigation who received a pharmaceutical product.
# The intensity of the AE should be judged based on the following: • a) Mild: Awareness of sign(s) or symptom(s) that is/are easily tolerated; • b) Moderate: Sufficient discomfort to cause interference with usual activity; or • c) Severe: Incapacitating or causing inability to work or to perform usual activities.
# [3] = tested on: TG, non-HDL-C, LDL-C, HDL-C, Apo B, hs-CRP; test: REDUCE-IT: fasting lipid, lipoprotein and inflammatory markers over time
# Excerpt: The key tertiary objectives for this study were to evaluate the effect of AMR101 4 g daily from baseline and percent change form baseline in fasting triglycerides and LDL-C. […]
# [4] = n = 50, intention-to-treat, usual care 0
# [5] = n = 50, intention-to-treat, usual care 6
# [6] = Year 1 (as headed in Table 18), 4 g/day
# [7] = Year 1 (as headed in Table 18), vs placebo
compound,measurement,setting,value
"CC/C=C\C/C=C\C/C=C\C/C=C\C/C=C\CCCC(=O)OCC [icosapent ethyl, eicosapentaenoic acid ethyl ester]",Total primary endpoint events: HR vs placebo,[1]; overall trial,0.68
same,Total primary endpoint events prevented,[1]; per 100 patients treated for five years,approximately 16
same,Total key secondary endpoint: HR,"[1]; primary prevention stratum, vs placebo",0.71
same,Total key secondary endpoint: HR,"[1]; secondary prevention stratum, vs placebo",0.70
same,First events reduced by,[1]; vs placebo,25%
same,Second events reduced by,[1]; vs placebo,28%
same,Third or more events reduced by,[1]; vs placebo,50%
same,Total events for the primary composite efficacy outcome: relative risk reduction,[1]; vs placebo,32%
same,Discontinuations with the 8 g per day loading dose,[2]; VASCEPA-COVID-19,no discontinuations
same,Tolerability,"[2]; VASCEPA-COVID-19, 14 days",well tolerated
same,Serious AEs or deaths,[2]; VASCEPA-COVID-19 trial population,No serious AEs or deaths occurred
same,"Mild adverse events: Gastrointestinal disorders, %",[2]; [4],8%
same,"Moderate adverse events: Gastrointestinal disorders, %",[2]; [4],2%
same,"Moderate adverse events: Respiratory disorders, %",[2]; [5],2%
same,"Total adverse events, %",[2]; [5],12%
same,LDL cholesterol median change (increase) from baseline,[3]; 4 g/day,0.05 mmol/L
same,LDL-C derived median % change from baseline,"[3]; Last Visit, 4 g/day, ITT",3.1%
same,LDL-C derived median absolute change from baseline,"[3]; Last Visit, 4 g/day, ITT",2.0 mg/dL
same,Reduction in hs-CRP observed in patients from this trial,[3]; REDUCE-IT,40%
same,Apo B median,[3]; [6],80.0 mg/dL
same,hs-CRP median,[3]; [6],1.8 mg/L
same,"Apo B median between group difference, % change from baseline",[3]; [7],−9.7%
same,"Apo B median between group difference, absolute change from baseline",[3]; [7],-8.0 mg/dL
same,"hs-CRP median between group difference, absolute change from baseline",[3]; [7],-0.9 mg/L
same,Triglycerides: median reduction from baseline greater than in placebo group (Hodges-Lehmann),[3]; baseline to one year,19.7%
